From patent US9255090B2, “Heterocyclyl derivatives and their use as prostaglandin D2 receptor modulators” (Actelion Pharmaceuticals Ltd., priority 2012, dated 2016)

Columns and labels:
[1] = system: eosinophils; test: Eosinophil shape change assay with human plasma; assay type: cell-based; conditions: human plasma (50%), PGD2 100 nM activation, antagonistic activity
Text: Eosinophil Shape Change Assay with Human Plasma
After obtaining informed consent, blood samples were drawn by venipuncture according to the protocol approved by the ethics committee of Basel, Switzerland. Polymorphonuclear leukocytes (containing eosinophils, basophils and neutrophils) were isolated using the Polymorphprep™ method (Axis-Shield). […] The polymorphonuclear cell fraction was harvested and depleted for erythrocytes by hypotonic saline lysis.
The polymorphonuclear cells were resuspended in assay buffer (1×PBS with Ca^2+/Mg^2+ supplemented with 0.1% BSA, 10 mM HEPES, and 10 mM Glucose, pH 7.4) at 5×10^6 cells/ml and stained with anti-CD49d-APC ((APC=Allophycocyanin) for 1 hour at RT. Test compounds, at various concentrations, were preincubated 10 min in human plasma (anticoagulated with a thrombin inhibitor). Then, human plasma was added to the polymorphonuclear cells to 50% of final assay volume with polymorphonuclear cells at 4×10^6 cells/ml. After incubation for 10 minutes at 37° C., the polymorphonuclear cells were activated for 5 min at 37° C. by addition of PGD2 at 100 nM final concentration. Activation was stopped by addition of 0.5 ml paraformaldehyde (1%).
Immediately after fixation with paraformaldehyde, the samples were analyzed by FACSCanto flow cytometer (BD Biosciences) and target cells were identified by their forward-scatter (FSC) and side-scatter (SSC) characteristics. Eosinophils were identified by the anti-CD49d-APC signal and their characteristic side-scatter (SSC) profile. Shape change responses, indicative of eosinophil activation, were quantified as the percent of cells with an increased forward-scatter.

[2] = target: hCRTH2 receptor (Homo sapiens (Human), UniProt Q9Y5Y4); test: hCRTH2 receptor membranes radioligand (3H-PGD2) displacement assay; assay type: binding; conditions: 3H-PGD2 radioligand displacement, HEK293-hCRTH2 membranes
How it was run: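 Compound was first mixed with buffer, then 3H-PGD2 was added at 2.5 nM, and the reaction was started with hCRTH2 membranes from HEK293 cells at 20 μg/well. After 90 min at room temperature, mixtures were filtered and washed with ice-cold buffer, and retained radioactivity was counted.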

Chain of hCRTH2 receptor (Q9Y5Y4 whole entry): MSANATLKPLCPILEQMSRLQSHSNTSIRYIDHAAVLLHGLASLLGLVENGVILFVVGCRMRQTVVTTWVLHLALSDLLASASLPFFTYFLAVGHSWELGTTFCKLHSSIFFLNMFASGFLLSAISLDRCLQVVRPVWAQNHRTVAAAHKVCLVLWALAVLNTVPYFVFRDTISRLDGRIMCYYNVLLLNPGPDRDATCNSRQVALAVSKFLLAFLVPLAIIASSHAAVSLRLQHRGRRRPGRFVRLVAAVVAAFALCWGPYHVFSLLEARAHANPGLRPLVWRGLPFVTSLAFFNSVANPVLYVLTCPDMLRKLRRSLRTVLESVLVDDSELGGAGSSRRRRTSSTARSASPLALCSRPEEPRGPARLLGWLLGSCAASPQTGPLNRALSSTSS

Row | IC50 ([1]; Homo sapiens, Eosinophil) [nM] | IC50 [2] [nM] | IC50 [1] [nM] | Structure (SMILES)
1 | 8 | 1.99 |  | COc1ccc(CC(=O)O)cc1-c1ccc(F)c2c1CN(C(=O)[C@@H]1C[C@H]1c1ccc(F)cc1)CC2 (racemic) [Example 1, (±)-(3-{5-Fluoro-2-[trans-2-(4-fluoro-phenyl)-cyclopropanecarbonyl]-1,2,3,4-tetrahydro-isoquinolin-8-yl}-4-methoxy-phenyl)-acetic acid]
2 | 12 | 3.64 |  | COc1ccc(CC(=O)O)cc1-c1ccc(F)c2c1CN(C(=O)[C@@H]1C[C@H]1c1ccccc1F)CC2 (racemic) [Example 5, (±)-(3-{5-Fluoro-2-[trans-2-(2-fluoro-phenyl)-cyclopropanecarbonyl]-1,2,3,4-tetrahydro-isoquinolin-8-yl}-4-methoxy-phenyl)-acetic acid]
3 | > 1000 | 19.9 |  | COc1ccc(CC(=O)O)cc1-c1ccc(F)c2c1CCN(C(=O)[C@@H]1C[C@H]1c1ccccc1)CC2 (racemic) [Example 36, (±)-{3-[9-Fluoro-3-(trans-2-phenyl-cyclopropanecarbonyl)-2,3,4,5-tetrahydro-1H-benzo[d]azepin-6-yl]-4-methoxy-phenyl}-acetic acid]
4 | 289 |  |  | COc1ccc(CC(=O)O)cc1-c1ccc(F)c2c1CN(C(=O)[C@@H]1C[C@H]1c1ccccc1)C2 (racemic) [Example 37, (±)-{3-[7-Fluoro-2-(trans-2-phenyl-cyclopropanecarbonyl)-2,3-dihydro-1H-isoindol-4-yl]-4-methoxy-phenyl}-acetic acid]
5 | 42 |  |  | COc1ccc(CC(=O)O)cc1-c1ccc(F)c2c1CN(C(=O)[C@@H]1C[C@H]1c1cccc(F)c1)CC2 (racemic) [Example 48, (±)-(3-{5-Fluoro-2-[trans-2-(3-fluoro-phenyl)-cyclopropanecarbonyl]-1,2,3,4-tetrahydro-isoquinolin-8-yl}-4-methoxy-phenyl)-acetic acid]
6 | 13 | 2.64 |  | COc1ccc(CC(=O)O)cc1-c1ccc(F)c2c1CN(C(=O)[C@@H]1C[C@H]1c1ccccc1)CC2 (racemic) [Example 60, (±)-{3-[5-Fluoro-2-(trans-2-phenyl-cyclopropanecarbonyl)-1,2,3,4-tetrahydro-isoquinolin-8-yl]-4-methoxy-phenyl}-acetic acid]
7 | > 1000 | 26.1 |  | COc1ccc(CC(=O)O)cc1-c1ccc(C(F)(F)F)c2c1CN(C(=O)[C@@H]1C[C@H]1c1ccccc1)CC2 (racemic) [Example 83, (±)-{4-Methoxy-3-[2-(trans-2-phenyl-cyclopropanecarbonyl)-5-trifluoromethyl-1,2,3,4-tetrahydro-isoquinolin-8-yl]-phenyl}-acetic acid]
8 | 10 | 8.2 |  | CCOc1ccc(CC(=O)O)cc1-c1ccc(F)c2c1CN(C(=O)CC1OCCc3ccccc31)CC2 (racemic) [Example 224]
9 | 43 | 12.9 |  | CCOc1ccc(CC(=O)O)cc1-c1ccc(F)c2c1CN(C(=O)CC1CCOc3ccccc31)CC2 (racemic) [Example 226]
10 | 38 |  |  | CCOc1ccc(CC(=O)O)cc1-c1ccc(F)c2c1CN(C(=O)CC1COc3ccccc31)CC2 (racemic) [Example 227]
11 | 8 |  |  | CCOc1ccc(CC(=O)O)cc1-c1ccc(F)c2c1CN(C(=O)CC1COCc3ccccc31)CC2 (racemic) [Example 228]
12 | 15 | 0.7 |  | CCOc1cc(CC(=O)O)ccc1-c1ccc(F)c2c1CN(C(=O)CC1OCCc3ccccc31)CC2 (racemic) [Example 229]
13 | 20 | 0.3 |  | CCOc1cc(CC(=O)O)ccc1-c1ccc(F)c2c1CN(C(=O)CC1COc3ccccc31)CC2 (racemic) [Example 235]
14 | 12 | 0.8 |  | CCOc1cc(CC(=O)O)ccc1-c1ccc(F)c2c1CN(C(=O)CC1CCOc3ccccc31)CC2 (racemic) [Example 236]
15 | 31 |  |  | COc1ccc(CC(=O)O)cc1-c1ccc(F)c2c1CN(C(=O)CC1CC(C)(C)Oc3ccccc31)CC2 (racemic) [Example 240]
16 | 92 | 20.6 |  | COc1ccc(CC(=O)O)cc1-c1ccc(F)c2c1CN(C(=O)CC1CCOc3cc(F)ccc31)CC2 (racemic) [Example 243]
17 | 399 | 10.6 |  | COc1ccc(CC(=O)O)cc1-c1ccc(F)c2c1CN(C(=O)CN(C)C(c1ccccc1)c1ccc(Cl)cc1)CC2 (racemic) [Example 253]
18 | 35 | 2.2 |  | COc1ccc(CC(=O)O)cc1-c1ccc(F)c2c1CN(C(=O)CC1OCCc3ccccc31)CC2 (racemic) [Example 257]
19 | 56 | 1.4 |  | COc1ccc(CC(=O)O)cc1-c1ccc(F)c2c1CN(C(=O)CC1CCc3ccccc3C1)CC2 (racemic) [Example 260]

Row | IC50 ([1]; Homo sapiens, Eosinophil) [nM] | IC50 [2] [nM] | IC50 [1] [nM] | Structure (SMILES)
20 | 86 | 3.1 |  | COc1ccc(CC(=O)O)cc1-c1ccc(F)c2c1CN(C(=O)CC1CCc3ccccc31)CC2 (racemic) [Example 261]
21 | 66 | 8.4 |  | COc1ccc(CC(=O)O)cc1-c1ccc(F)c2c1CN(C(=O)CC1CCOc3ccccc31)CC2 (racemic) [Example 262]
22 | 64 | 4.9 |  | COc1ccc(CC(=O)O)cc1-c1ccc(F)c2c1CN(C(=O)CC1CCCc3ccccc31)CC2 (racemic) [Example 263]
23 | 98 | 7.8 |  | COc1ccc(CC(=O)O)cc1-c1ccc(F)c2c1CN(C(=O)CC(C)c1ccccn1)CC2 (racemic) [Example 265]
24 | 91 | 22.3 |  | COc1ccc(CC(=O)O)cc1-c1ccc(F)c2c1CN(C(=O)CC1COCc3ccccc31)CC2 (racemic) [Example 271]
25 | 19 | 3.9 |  | CCOc1ccc(CC(=O)O)cc1-c1ccc(F)c2c1CN(C(=O)CC(C)c1ccc(F)cc1)CC2 (racemic) [Example 278]
26 | 45 | 6.9 |  | CCOc1ccc(CC(=O)O)cc1-c1ccc(F)c2c1CN(C(=O)CC(C)c1cccc(F)c1)CC2 (racemic) [Example 279]
27 | 15 | 1.8 |  | CCOc1ccc(CC(=O)O)cc1-c1ccc(F)c2c1CN(C(=O)CC(C)c1cccc(C)n1)CC2 (racemic) [Example 328]
28 | 15 | 0.6 |  | CCOc1ccc(CC(=O)O)cc1-c1ccc(F)c2c1CN(C(=O)[C@@H]1C[C@H]1c1ccccn1)CC2 (racemic) [Example 330]
29 | 15 | 11.8 |  | CCOc1ccc(CC(=O)O)cc1-c1ccc(F)c2c1CN(C(=O)CC1COc3ccccc3C1)CC2 (racemic) [Example 332]
30 | 28 |  |  | COc1cc(CC(=O)O)ccc1-c1ccc(F)c2c1CN(C(=O)CC1CCOc3ccccc31)CC2 (racemic) [Example 359]
31 | 10 |  |  | COc1ccc(CC(=O)O)cc1-c1ccc(F)c2c1CN(C(=O)[C@@H]1C[C@H]1c1cccc(F)c1)CC2 [Example 65, (3-{5-Fluoro-2-[(1R,2R)-2-(3-fluoro-phenyl)-cyclopropanecarbonyl]-1,2,3,4-tetrahydro-isoquinolin-8-yl}-4-methoxy-phenyl)-acetic acid]
32 | 50 |  |  | COc1cc(CC(=O)O)ccc1-c1ccc(F)c2c1CN(C(=O)CC1CCOc3ccccc31)CC2 (stereo not shown) [Example 200, {4-[2-(2-Chroman-4-yl-acetyl)-5-fluoro-1,2,3,4-tetrahydro-isoquinolin-8-yl]-3-methoxy-phenyl}-acetic acid]
33 |  |  | 31 | COc1cc(CC(=O)O)ccc1-c1ccc(F)c2c1CN(C(=O)CC1CCOc3ccccc31)CC2 (stereo not shown) [Example 201, {4-[2-(2-Chroman-4-yl-acetyl)-5-fluoro-1,2,3,4-tetrahydro-isoquinolin-8-yl]-3-methoxy-phenyl}-acetic acid]
34 |  |  | 15 | CCOc1ccc(CC(=O)O)cc1-c1ccc(F)c2c1CN(C(=O)CC1COc3ccccc31)CC2 (stereo not shown) [Example 207, {3-[2-(2-2,3-Dihydro-benzofuran-3-yl-acetyl)-5-fluoro-1,2,3,4-tetrahydro-isoquinolin-8-yl]-4-ethoxy-phenyl}-acetic acid]
35 |  |  | 42 | CCOc1ccc(CC(=O)O)cc1-c1ccc(F)c2c1CN(C(=O)CC1COc3ccccc31)CC2 (stereo not shown) [Example 208, {3-[2-(2-2,3-Dihydro-benzofuran-3-yl-acetyl)-5-fluoro-1,2,3,4-tetrahydro-isoquinolin-8-yl]-4-ethoxy-phenyl}-acetic acid]
36 | 13 |  |  | CCOc1ccc(CC(=O)O)cc1-c1ccc(F)c2c1CN(C(=O)CC1COCc3ccccc31)CC2 (stereo not shown) [Example 209, {4-Ethoxy-3-[5-fluoro-2-(2-isochroman-4-yl-acetyl)-1,2,3,4-tetrahydro-isoquinolin-8-yl]-phenyl}-acetic acid]
37 |  |  | 11 | CCOc1ccc(CC(=O)O)cc1-c1ccc(F)c2c1CN(C(=O)CC1COCc3ccccc31)CC2 (stereo not shown) [Example 210, {4-Ethoxy-3-[5-fluoro-2-(2-isochroman-4-yl-acetyl)-1,2,3,4-tetrahydro-isoquinolin-8-yl]-phenyl}-acetic acid]
